From ChEMBL document CHEMBL3885861, “Open TG-GATES”

Organism: Rattus norvegicus
Experiment: Open TG-GATES - Regimen: Single
Format: toxicity, organism-based, Sprague-Dawley
Design: regimen Single, gender Male, age 6 weeks
Details: in vivo, po, 200 mg/kg, route gavage, dose level High; for APTT / Bas / Eos / Fbg / Hb / Ht / Lym / MCH / MCHC / MCV / Mono / Neu / PT / Plat / RBC / Ret / WBC: tissue Blood; for KIDNEY_L / KIDNEY_R / KIDNEY_TOTAL: tissue Kidney; for LIVER: tissue Liver; for A/G / ALP / ALT / AST / BUN / CRE / Ca / Cl / DBIL / GLC / IP / K / LDH / Na / PL / RALB / TBIL / TC / TG / TP / gamma-GTP: tissue Plasma

For `CCc1oc2ccccc2c1C(=O)c1cc(Br)c(O)c(Br)c1` [BENZBROMARONE], the TERMINAL_BW (3 h) was 215.1 g, the APTT (3 h) was 17.8 s and the Bas (3 h) was 0%. For the same molecule, the Eos (3 h) was 1%, the Fbg (3 h) was 227 mg/dL and the Hb (3 h) was 13.3 g/dL. For the same molecule, the Ht (3 h) was 39.8%, the Lym (3 h) was 76.4% and the MCH (3 h) was 22.2 pg. It also gave an MCHC (3 h) of 33.3%, an MCV (3 h) of 66.5 fL and a Mono (3 h) of 4.4%. The Neu (3 h) was 18.4%, the PT (3 h) was 12.3 s and the Plat (3 h) was 98.6 x10_4/uL. For the same molecule, the RBC (3 h) was 600 x10_4/ul, the Ret (3 h) was 7.7% and the WBC (3 h) was 85.4 x10_2/uL. For the same molecule, the KIDNEY_L (3 h) was 1 g, the KIDNEY_R (3 h) was 0.9 g and the KIDNEY_TOTAL (3 h) was 1.9 g. It also gave an LIVER (3 h) of 9.9 g, an A/G (3 h) of 1.9 and an ALP (3 h) of 814 IU/L. The ALT (3 h) was 37.2 IU/L, the AST (3 h) was 70 IU/L and the BUN (3 h) was 17.2 mg/dL. It also gave a CRE (3 h) of 0.8 mg/dL, a Ca (3 h) of 9.9 mg/dL and a Cl (3 h) of 103.4 meq/L. For the same molecule, the DBIL (3 h) was 0.096 mg/dL, the GLC (3 h) was 252.6 mg/dL and the IP (3 h) was 10 mg/dL. It also gave a K (3 h) of 5.3 meq/L, an LDH (3 h) of 137.2 IU/L and a Na (3 h) of 138.4 meq/L. The PL (3 h) was 136.8 mg/dL, the RALB (3 h) was 3.6 g/dL and the TBIL (3 h) was 0.4 mg/dL. For the same molecule, the TC (3 h) was 75.6 mg/dL, the TG (3 h) was 69.6 mg/dL and the TP (3 h) was 5.5 g/dL. The gamma-GTP (3 h) was 1 IU/L, the TERMINAL_BW (6 h) was 213.5 g and the APTT (6 h) was 16.3 s. For the same molecule, the Bas (6 h) was 0%, the Eos (6 h) was 0.8% and the Fbg (6 h) was 239.2 mg/dL. The Hb (6 h) was 13.2 g/dL, the Ht (6 h) was 39.6% and the Lym (6 h) was 80.2%. The MCH (6 h) was 21.6 pg, the MCHC (6 h) was 33.3% and the MCV (6 h) was 64.8 fL. The Mono (6 h) was 5.4%, the Neu (6 h) was 13.6% and the PT (6 h) was 12.2 s. For the same molecule, the Plat (6 h) was 97.5 x10_4/uL, the RBC (6 h) was 612 x10_4/ul and the Ret (6 h) was 7.9%. For the same molecule, the WBC (6 h) was 66.9 x10_2/uL, the KIDNEY_L (6 h) was 1 g and the KIDNEY_R (6 h) was 1 g. For the same molecule, the KIDNEY_TOTAL (6 h) was 2 g, the LIVER (6 h) was 9.5 g and the A/G (6 h) was 2. It also gave an ALP (6 h) of 776.8 IU/L, an ALT (6 h) of 34 IU/L and an AST (6 h) of 59 IU/L. It also gave a BUN (6 h) of 14.2 mg/dL, a CRE (6 h) of 0.7 mg/dL and a Ca (6 h) of 10.5 mg/dL. The Cl (6 h) was 101.4 meq/L, the DBIL (6 h) was 0.024 mg/dL and the GLC (6 h) was 212.4 mg/dL. For the same molecule, the IP (6 h) was 10.3 mg/dL, the K (6 h) was 4.8 meq/L and the LDH (6 h) was 137.4 IU/L. For the same molecule, the Na (6 h) was 139.2 meq/L, the PL (6 h) was 137 mg/dL and the RALB (6 h) was 3.8 g/dL. For the same molecule, the TBIL (6 h) was 0.4 mg/dL, the TC (6 h) was 78.4 mg/dL and the TG (6 h) was 56.6 mg/dL. For the same molecule, the TP (6 h) was 5.7 g/dL, the gamma-GTP (6 h) was 1.4 IU/L and the TERMINAL_BW (9 h) was 213.1 g. It also gave an APTT (9 h) of 17 s, a Bas (9 h) of 0% and an Eos (9 h) of 0%. The Fbg (9 h) was 240 mg/dL, the Hb (9 h) was 13.2 g/dL and the Ht (9 h) was 39.4%. For the same molecule, the Lym (9 h) was 79.2%, the MCH (9 h) was 22.2 pg and the MCHC (9 h) was 33.6%. For the same molecule, the MCV (9 h) was 66 fL, the Mono (9 h) was 2.8% and the Neu (9 h) was 17.8%. The PT (9 h) was 12.2 s, the Plat (9 h) was 104 x10_4/uL and the RBC (9 h) was 596.4 x10_4/ul. The Ret (9 h) was 8.2%, the WBC (9 h) was 96.1 x10_2/uL and the KIDNEY_L (9 h) was 1 g. It also gave a KIDNEY_R (9 h) of 1 g, a KIDNEY_TOTAL (9 h) of 2 g and an LIVER (9 h) of 9.2 g. For the same molecule, the A/G (9 h) was 2.1, the ALP (9 h) was 868 IU/L and the ALT (9 h) was 34.4 IU/L. It also gave an AST (9 h) of 60.8 IU/L, a BUN (9 h) of 16.6 mg/dL and a CRE (9 h) of 0.7 mg/dL. For the same molecule, the Ca (9 h) was 10.4 mg/dL, the Cl (9 h) was 103.4 meq/L and the DBIL (9 h) was 0.04 mg/dL. For the same molecule, the GLC (9 h) was 207.8 mg/dL, the IP (9 h) was 10.7 mg/dL and the K (9 h) was 4.9 meq/L. For the same molecule, the LDH (9 h) was 178.8 IU/L, the Na (9 h) was 138.6 meq/L and the PL (9 h) was 143.8 mg/dL. It also gave an RALB (9 h) of 3.9 g/dL, a TBIL (9 h) of 0.3 mg/dL and a TC (9 h) of 81.2 mg/dL. The TG (9 h) was 65.6 mg/dL, the TP (9 h) was 5.9 g/dL and the gamma-GTP (9 h) was 1.4 IU/L. For the same molecule, the TERMINAL_BW (24 h) was 217.2 g, the APTT (24 h) was 15.8 s and the Bas (24 h) was 0%. It also gave an Eos (24 h) of 0.6%, a Fbg (24 h) of 219.2 mg/dL and a Hb (24 h) of 13.9 g/dL. It also gave a Ht (24 h) of 41.2%, a Lym (24 h) of 83.6% and an MCH (24 h) of 22.2 pg. It also gave an MCHC (24 h) of 33.6%, an MCV (24 h) of 65.9 fL and a Mono (24 h) of 4.6%. For the same molecule, the Neu (24 h) was 11.4%, the PT (24 h) was 12.4 s and the Plat (24 h) was 107.4 x10_4/uL. For the same molecule, the RBC (24 h) was 627.2 x10_4/ul, the Ret (24 h) was 7.6% and the WBC (24 h) was 117.5 x10_2/uL. For the same molecule, the KIDNEY_L (24 h) was 1 g, the KIDNEY_R (24 h) was 1 g and the KIDNEY_TOTAL (24 h) was 2 g. It also gave an LIVER (24 h) of 11.3 g, an A/G (24 h) of 2.1 and an ALP (24 h) of 1012.6 IU/L. For the same molecule, the ALT (24 h) was 35 IU/L, the AST (24 h) was 61 IU/L and the BUN (24 h) was 16.8 mg/dL. It also gave a CRE (24 h) of 0.7 mg/dL, a Ca (24 h) of 10.2 mg/dL and a Cl (24 h) of 103.6 meq/L. For the same molecule, the DBIL (24 h) was 0.018 mg/dL, the GLC (24 h) was 182 mg/dL and the IP (24 h) was 7.9 mg/dL. The K (24 h) was 4.9 meq/L, the LDH (24 h) was 186.2 IU/L and the Na (24 h) was 139.6 meq/L. It also gave a PL (24 h) of 119.6 mg/dL, an RALB (24 h) of 3.9 g/dL and a TBIL (24 h) of 0.3 mg/dL. It also gave a TC (24 h) of 70.8 mg/dL, a TG (24 h) of 74.8 mg/dL and a TP (24 h) of 5.9 g/dL. The gamma-GTP (24 h) was 1.6 IU/L.
